The source of these data is US7923465B2, “Cannabinoid receptor ligands, pharmaceutical compositions containing them, and process for their preparation” (priority 2005, dated 2011).

One series addresses hCB2 (Homo sapiens, UniProt P34972). In words: In vitro binding assay using hCB2-CHO membranes, [3H]-CP-55,940 displacement (Protocol IV). Further details: expressed in transfected cells; host or cells: CHO (hCB2-CHO, generated in-house). To be noted: hCB2-CHO membranes, [3H]-CP-55,940 displacement. In short, it runs like this: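 Compounds were tested at a single 300 nM final concentration for displacing 0.75 nM [3H]-CP-55,940 from hCB2-CHO membranes (1 h, 30 °C, 50 mM Tris pH 7.4, 5 mM MgCl2, 1 mM EDTA, 0.1% BSA). Filter-bound radioactivity was counted, with 0.5 μM unlabelled CP-55,940 for nonspecific binding; results are % displacement.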

The next series concerns the target hCB1 (Homo sapiens, UniProt P21554). In words: In vitro binding assay using hCB1-CHO membranes, [3H]-CP-55,940 displacement (Protocol II). Further details: expressed in transfected cells; host or cells: CHO (hCB1-CHO, generated in-house). As to the method: II. Protocol for In Vitro Assay Using hCB1-CHO Membranes
The reaction was set up in a total volume of 200 μl in PEI (Poly(ethyleneimine)) (0.2%) precoated Millipore GFB (Glass Fibre-B) filter plates. 1 mM stocks of test compounds were prepared in DMSO and tested at a final concentration of 300 nM. The non-specific binding was determined by 0.5 μM CP-55, 940. […] The assay mixture (with or without the test compound) was incubated at 37° C. for 1 hour. The reaction was stopped by rapid filtration under vacuum and the radioactivity on the filters was measured by liquid scintillation counting.

The target of series [1] is T1, CB1 (Rattus norvegicus, UniProt P20272). In words: Rat CB1 receptor binding using brain membrane, [3H]SR141716A displacement (Protocol I). Further details: CB1 receptor present in a rat brain membrane preparation; from tissue; host or cells: rat brain membrane; inhibition: dose or concentration left out as unconfirmed. To be noted: rat brain membrane, [3H]SR141716A displacement.

For series [2], the target named is T1, CB1. As to the kind of experiment: GTPγS binding assay, CB1 functional assay in rat cerebellar membrane (Protocol VIII). Set-up: 10 μg rat cerebellum membrane; from tissue; host or cells: rat cerebellum membrane, prepared in-house. In kind it is biochemical. In short, it runs like this:
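Rat cerebellar membranes (10 μg) incubated 1 h at 30 °C with 0.2 nM [35S]GTPγS, 50 μM GDP, and compound at 1 μM or 300 nM, alone or with 1 μM WIN 55,212-2, in Tris/MgCl2/EGTA/NaCl pH 7.4. Filter-bound radioactivity counted; percent stimulation calculated against basal specific binding (nonspecific defined by 10 μM GTPγS).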
Background: GTPγS resists hydrolysis and so accumulates on activated G proteins.

Chain of hCB1 (P21554 whole entry): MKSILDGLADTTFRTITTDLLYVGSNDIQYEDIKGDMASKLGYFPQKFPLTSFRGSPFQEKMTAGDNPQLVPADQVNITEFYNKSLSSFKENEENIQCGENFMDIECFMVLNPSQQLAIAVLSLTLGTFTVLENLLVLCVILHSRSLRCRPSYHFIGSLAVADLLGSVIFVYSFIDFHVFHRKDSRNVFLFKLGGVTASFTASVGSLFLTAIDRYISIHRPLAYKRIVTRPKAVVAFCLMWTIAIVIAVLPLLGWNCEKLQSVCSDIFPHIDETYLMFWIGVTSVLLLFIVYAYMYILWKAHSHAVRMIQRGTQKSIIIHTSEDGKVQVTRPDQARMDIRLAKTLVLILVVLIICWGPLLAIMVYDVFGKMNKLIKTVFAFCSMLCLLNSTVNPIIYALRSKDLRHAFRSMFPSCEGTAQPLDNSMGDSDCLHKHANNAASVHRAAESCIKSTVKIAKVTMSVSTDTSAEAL
Chain of hCB2 (P34972 whole entry): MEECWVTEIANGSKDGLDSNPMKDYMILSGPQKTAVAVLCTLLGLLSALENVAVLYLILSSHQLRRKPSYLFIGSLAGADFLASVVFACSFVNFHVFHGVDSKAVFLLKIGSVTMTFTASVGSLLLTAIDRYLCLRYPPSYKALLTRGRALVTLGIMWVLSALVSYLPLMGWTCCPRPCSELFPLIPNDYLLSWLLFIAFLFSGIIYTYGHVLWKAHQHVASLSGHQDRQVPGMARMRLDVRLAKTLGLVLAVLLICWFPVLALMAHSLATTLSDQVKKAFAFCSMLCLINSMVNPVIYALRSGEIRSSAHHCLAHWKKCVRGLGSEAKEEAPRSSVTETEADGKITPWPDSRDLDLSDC
T1 sequence (P20272 whole entry): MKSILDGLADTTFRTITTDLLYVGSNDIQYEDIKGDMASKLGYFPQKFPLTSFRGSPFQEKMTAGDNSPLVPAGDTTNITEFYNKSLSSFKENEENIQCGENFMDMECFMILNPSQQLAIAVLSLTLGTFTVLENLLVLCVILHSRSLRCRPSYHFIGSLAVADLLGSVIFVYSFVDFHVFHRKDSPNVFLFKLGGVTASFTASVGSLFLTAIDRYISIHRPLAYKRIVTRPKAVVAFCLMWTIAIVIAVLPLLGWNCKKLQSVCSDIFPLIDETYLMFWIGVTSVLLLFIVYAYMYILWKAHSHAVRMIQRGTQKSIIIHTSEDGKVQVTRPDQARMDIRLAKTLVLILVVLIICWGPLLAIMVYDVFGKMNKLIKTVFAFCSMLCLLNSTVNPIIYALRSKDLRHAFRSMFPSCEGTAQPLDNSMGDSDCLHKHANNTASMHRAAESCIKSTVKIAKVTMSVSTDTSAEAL

As for `COC(=O)[C@H](NC(=O)c1nn(-c2ccc(F)cc2F)c2c1C1CC3CC(C1)CC2C3)c1ccccc1` [Example 154, Methyl(2R)-2-[7-(2,4-difluorophenyl)-6,7-diazatetracyclo[7.3.1.1^3,11.0^4,8]tetradeca-4(8),5-dien-5-ylcarboxamido]-2-phenylethanoate], the “% Displacement Protocol IV” value at hCB2 is listed as 70.19%. The “% Displacement Protocol II” value at hCB1 amounted to 96.1%.

For `CN(NC(=O)c1nn(-c2ccc(Cl)cc2)c2c1C1CC3CC(C1)CC2C3)c1ccc(Cl)cc1Cl.Cl` [Example 128], on CB1 [1], the “% Displacement Protocol I” value came to 83%. The “% Displacement Protocol II” value on hCB1 was found to be 37.28%.

Regarding `CC1(C)C2CC[C@@](C)(C2)C1NC(=O)c1nn(-c2ccc(Cl)cc2)c2c1C1CC3CC(C1)CC2C3` (stereo partly drawn) [Example 110, N(7)-(1S,2endo-1,3,3-Trimethyl-bicyclo[2.2.1]hept-2-yl)-5-(4-chlorophenyl)-5,6-diazatetracyclo[7.3.1.1^3,11.0^4,8]tetradeca-4(8)-6-diene-7-carboxamide], the “% Displacement Protocol IV” value at hCB2 was determined as 60.7%. Moreover, the “% Displacement Protocol II” value at hCB1 worked out at 37.69%.

Consider `CN(NC(=O)c1nn(-c2ccc(Cl)cc2Cl)c2c1C1CCC2c2ccccc21)C1CCCCC1` (stereo not shown) [Example 504, N(12)-[(N′-Cyclohexyl-N′-methyl)amino]-10-(2,4-dichlorophenyl)-10,11-diazatetracyclo[6.5.2.0^2,7.0^9,13]pentadeca-2,4,6,9(13),11-pentaene-12-carboxamide], for which the “% Displacement Protocol I” value on CB1 [1] came to 79.7%. The “% Displacement Protocol II” value on hCB1 was determined as 62.9%.

Take `C[C@H](NC(=O)c1nn(-c2ccc(F)cc2F)c2c1C1CC3CC(C1)CC2C3)c1ccccc1` [Example 146]: the “% Displacement Protocol IV” value at hCB2 is given as 68.16%. Moreover, the “% Displacement Protocol II” value at hCB1 is 60.51%.

In the case of `C[C@H](NC(=O)c1n[nH]c2c1C1(c3ccc(F)cc3F)CCC2C1)c1ccccc1` (stereo partly drawn) [Example 292, N(3)-[S-(1-Phenylethyl)]-4-(2,4-difluorophenyl)-4,5,6,7-tetrahydro-1H-4,7-methano-indazole-3-carboxamide], the “% Displacement Protocol II” value on hCB1 is reported as 69.79%.

Consider `O=C(NNc1ccccc1Cl)c1nn(-c2ccc(F)cc2F)c2c1C1CCC2C1` (stereo not shown) [Example 286, N(3)-[(2-Chlorophenyl)amino]-1-(2,4-difluorophenyl)-4,5,6,7-tetrahydro-H-4,7-methano-indazole-3-carboxamide], for which the “% Displacement Protocol II” value on hCB1 is 32.35%.

As for `O=C(Nc1cccc(Cl)c1)c1nn(-c2ccc(Cl)cc2)c2c1C1CCC2C1` (stereo not shown) [Example 215, N(3)-(3-Chorophenyl)-1-(4-chlorophenyl)-4,5,6,7-tetrahydro-1H-4,7-methano-indazole-3-carboxamide], the “% Displacement Protocol II” value at hCB1 stood at 1.38%.

`O=C(NC12CC3CC(CC(C3)C1)C2)c1nn(-c2ccc(F)cc2F)c2c1C1CC3CC(C1)CC2C3` [Example 144, N(7)-(Adamantan-1-yl)-5-(2,4-difluorophenyl)-5,6-diazatetracyclo[7.3.1.1^3,11.0^4,8]tetradeca-4(8)-6-diene-7-carboxamide]: the “% Displacement Protocol IV” value at hCB2 worked out at 69.24%. Also, the “% Displacement Protocol II” value on hCB1 is given as 40.13%.

On to `C[C@@H](NC(=O)c1nn(-c2ccc(Cl)cc2)c2c1C1CC3CC(C1)CC2C3)c1ccccc1` [Example 118], for which the “% Displacement Protocol IV” value on hCB2 came out at 61.23%. The “% Displacement Protocol II” value at hCB1 is 45.43%.

`O=C(NN1CCOCC1)c1nn(-c2ccc(F)cc2F)c2c1C1CCC2C1` (stereo not shown) [Example 312, 4-[5-(2,4-Difluorophenyl)-4,5-diazatricyclo[5.2.1.0^2,6]deca-2(6),3-dien-3-ylcarboxamido]morpholine]: the “% Displacement Protocol IV” value on hCB2 was found to be 4.47%. In addition, on hCB1, the “% Displacement Protocol II” value is on record as 10.97%.

`CCCCCn1nc(C(=O)NC(C)(C)c2ccccc2)c2c1C1CC3CC(CC2C3)C1` [Example 190b, N(7)-(1-Methyl-1-phenylethyl)-5-pentyl-5,6-diazatetracyclo[7.3.1.1^3,11.0^4,8]tetradeca-4(8)-6-diene-7-carboxamide]: the “% Displacement Protocol IV” value on hCB2 amounted to 96.07%. Further, the “% Displacement Protocol II” value on hCB1 is on record as 100%.

As for `COC(=O)[C@@H](NC(=O)c1nn(-c2ccc(F)cc2F)c2c1C1CCC2C1)c1ccccc1` (stereo partly drawn) [Example 301, Methyl(2S)-2-[5-(2,4-difluorophenyl)-4,5-diazatricyclo[5.2.1.0.^2,6]deca-2(6),3-dien-3-ylcarboxamido]-2-phenylethanoate], on hCB2, the “% Displacement Protocol IV” value came out at 82.09%. Also, the “% Displacement Protocol II” value at hCB1 worked out at 82.54%.

In the case of `COC(=O)[C@@H](NC(=O)c1nn(-c2ccc(F)cc2F)c2c1C1CCC2C1)c1ccc(F)cc1` (stereo partly drawn) [Example 326, Methyl (2S)-2-[5-(2,4-difluorophenyl)-4,5-diazatricyclo[5.2.1.0.^2,6]deca-2(6),3-dien-3-ylcarboxamido]-2-(4-fluorophenyl)ethanoate], the “% Displacement Protocol IV” value on hCB2 amounted to 99.18%. In addition, at hCB1, the “% Displacement Protocol II” value is recorded as 73.99%.

Regarding `O=C(NC12CC3CC(CC(C3)C1)C2)c1nn(-c2ccc(F)cc2)c2c1C1CC3CC(C1)CC2C3` [Example 158, N(7)-(Adamantan-1-yl)-5-(4-fluorophenyl)-5,6-diazatetracyclo[7.3.1.1^3,11.0^4,8]tetradeca-4(8)-6-diene-7-carboxamide], the “% Displacement Protocol IV” value on hCB2 was 95.4%. The “% Displacement Protocol II” value on hCB1 was found to be 70.12%.

Turning to `CC1(C)[C@@H]2CC[C@@](C)(C2)[C@@H]1NC(=O)c1nn(-c2ccc(F)cc2F)c2c1C1CC3CC(C1)CC2C3` [Example 145, N(7)-(1S,2endo-1,3,3-Trimethyl-bicyclo[2.2.1]hept-2-yl)-5-(2,4-difluorophenyl)-5,6-diazatetracyclo[7.3.1.1^3,11.0^4,8]tetradeca-4(8)-6-diene-7-carboxamide], the “% Displacement Protocol IV” value at hCB2 came to 75.88%. Besides, the “% Displacement Protocol II” value at hCB1 stood at 54.01%.

Regarding `COC(=O)[C@H](NC(=O)c1nn(-c2ccc(F)cc2F)c2c1C1CCC2C1)c1ccccc1` (stereo partly drawn) [Example 319, Methyl (2R)-2-[5-(2,4-difluorophenyl)-4,5-diazatricyclo[5.2.1.0.^2,6]deca-2(6),3-dien-3-ylcarboxamido]-2-phenylethanoate], the “% Displacement Protocol IV” value on hCB2 is 86.68%. Besides, the “% Displacement Protocol II” value at hCB1 came to 88.02%.

With `CC(C)(NC(=O)c1nn(-c2ccc(F)cc2F)c2c1C1CCC2(C)C1(C)C)c1ccccc1` (stereo not shown) [Example 407], the “% Displacement Protocol IV” value on hCB2 worked out at 88.44%. At hCB1, the “% Displacement Protocol II” value amounted to 87.28%.

On to `COC(=O)[C@@H](NC(=O)c1nn(-c2ccc(F)cc2F)c2c1C1CC3CC(C1)CC2C3)c1ccccc1` [Example 155, Methyl(2S)-2-[7-(2,4-difluorophenyl)-6,7-diazatetracyclo[7.3.1.1^3,11.0^4,8]tetradeca-4(8),5-dien-5-ylcarboxamido]-2-phenylethanoate], for which, on hCB2, the “% Displacement Protocol IV” value stood at 72.38%. Further, at hCB1, the “% Displacement Protocol II” value stood at 96.65%.

In turn, `O=C(NCCc1ccccc1)c1nn(-c2ccc(Cl)cc2Cl)c2c1C1CC3CC(C1)CC2C3` [Example 178, N(7)-(2-Phenylethyl)-5-(2,4-dichlorophenyl)-5,6-diazatetracyclo[7.3.1.1^3,11.0^4,8]tetradeca-4(8),6-diene-7-carboxamide] gave a melting point of 63 to 66 °C. Besides, the activation at 1 µM at CB1 [2] (1 h, GTPγS binding over basal, rat cerebellar membrane, tested at 1 uM, read-out: Per Se % Stimulation) was -0.7%. Also, the inhibition at 1 µM on CB1 [2] (GTPγS binding, tested at 1 uM in presence of 1 μM WIN 55,212-2, read-out: % Inhibition of WIN-55212-2 induced stimulation) was 88%. On hCB2 (1 h, read-out: % Displacement Protocol IV), the inhibition at 0.3 µM was determined as 6.04%. In addition, the inhibition at CB1 [1] (1 h, read-out: % Displacement Protocol I) is 47%.

Broadly, the melting point is the temperature of the solid-liquid transition.
